Experimental data published in patent EP0986381B1, “USE OF DITERPENES LIKE HYPOESTOXIDES FOR THE MANUFACTURE OF A MEDICAMENT FOR IMMUNOSUPPRESSION, ANTICANCER AND ANTIVIRAL TREATMENT” (Immune Modulation, Inc., priority 1997, dated 1998).

Columns and labels:
Format in all cases: cell-based
[1] = Colorimetric MTT cytotoxicity assay, HUVEC; conditions: human, read-out: IC50 concentration (cytotoxicity)
Procedure: The following materials and methods were employed in the non-limiting Examples set out below. Tumor cells: Human cervical epitheloid carcinoma (HeLa), human renal clear cell carcinoma (CAKI-1), human malignant melanoma (RPMI-7951) and mouse malignant melanoma (B16-F1) were procured from ATCC (Rockville, MD) and maintained in vitro with MEM medium (Mediatech, Inc., Herndon, VA) supplemented with 10% heat-inactivated fetal bovine serum (American Qualex, San Clemente, CA), 10mM glutamine, 100 U/ml penicillin, and 100 µg/ml streptomycin (Sigma Chemicals, Saint Louis, MO) (complete medium). […] Cell viability was assessed by trypan blue dye exclusion test and the cell number was adjusted to required concentration. Colorimetric MTT assay: Cytotoxic effects of the hypoestoxide compounds of formulas I and II (JO-4A) were determined in vitro by a colorimetric assay (Mosmann, T., J. Immunol. Methods, 65: 55-63, 1983). […] Mixing with a multichannel pipetter dissolved the dark blue crystals and the absorbance was measured at 545-650 nm using an ELISA plate reader. […] The tumors were measured with a microcaliper, and the tumor volume was calculated by the formula: Length x width x height x 0.5236 (Jungwirth, A. et al., Proc. Natl. Acad. Sci. USA, 94:5810-5813, 1997). […]

[2] = Colorimetric MTT cytotoxicity assay, normal cervical ectoepithelial cells; conditions: human, crec-ec cells
human PBMCs = test: Toxicity on human PBMC, trypan blue dye exclusion; conditions: 1.25, 2.5 and 5 µg/mL; 2, 5 and 7 days
Procedure: In order to determine if JO-4 was toxic on human cells in vitro, human PBMCs were cultured in the absence or presence of varying concentrations of JO-4 (1.25, 2.5, and 5 µg/mL) for different days (2, 5 and 7 days). At the end of each incubation period, viability of cells was determined by trypan blue dye exclusion method.

Row | SMILES | CC50 at 72 h [1] | cytotoxicity ([2]; at the IC50 dose for HeLa (between 10 µM and 12.5 µM), read-out: cytotoxic effect) | CC50 at 72 h ([2]; normal cervical ectoepithelial cells, 72 hours, read-out: IC50 (cytotoxicity)) | toxicity to lymphocytes (human PBMCs)
1 | C=C1C(=O)CC2CC3OC3(C)CCC3OC3(C)CC(O)C1C2(C)C (stereo not shown) [JO-4A] | 25 to 50 µM | 6% | > 100 µM | –
2 | C=C1C(=O)C[C@H]2C[C@@H]3O[C@@]3(C)CC[C@@H]3O[C@@]3(C)C[C@@H](OC(C)=O)[C@H]1C2(C)C [JO-4, hypoestoxide] | – | – | – | not toxic
